Assay results as given in patent publication US20130102591A1, “COMPOSITIONS AND METHODS FOR PREVENTION AND TREATMENT OF PULMONARY HYPERTENSION” (priority 2010, published 2013).
“Also recorded” adds a separate entry of the source.

What was measured:
[1] = tested on: MCT-induced pulmonary hypertension; experiment: Mean pulmonary arterial pressure in the monocrotaline (MCT) rat pulmonary hypertension model; format: in vivo, Sprague-Dawley rats; details: 10 days of therapy starting 38 days after MCT
Experimental: (§1) Adult male Sprague-Dawley rats (250-350 g) (3 groups; n=5 per group) were treated with a single subcutaneous injection of monocrotaline (MCT; 60 mg/kg), a plant poison that induces a well-characterized experimental model of pulmonary hypertension, or an equivalent volume of saline (2 ml/kg; control). […] At the conclusion of the 10-day dosing period, rats were anesthetized and instrumented, and resting hemodynamic indices were recorded.
Rats were anesthetized with intramuscular ketamine (90 mg/kg) and pentobarbital sodium (15 mg/kg). The trachea was exposed and cannulated with a plastic tube that was connected to a Harvard ventilator. The animals were ventilated with room air at a tidal volume of 1.5 ml at a rate of 100 breaths/minute. A polyethylene catheter (PE-50) was inserted into the right carotid artery to measure the mean systemic arterial pressure (SAP). A polyvinyl (PV-1) catheter was inserted through the right jugular vein via the right atrium and ventricle into the pulmonary artery for measurement of the mean pulmonary arterial pressure (MPAP).

[2] = tested on: MCT-induced histological alterations in the lung; experiment: Lung histology (optical microscopy) in the MCT rat pulmonary hypertension model; format: in vivo, Sprague-Dawley rats; details: for Fibrosis score: 10 days starting 38 days after MCT; for Effect on histological lung injury (alveolar damage, inflammatory cell infiltrate, vascular smooth muscle hypertrophy), in words: groups 3 and 4 versus vehicle control (group 2)
Experimental: as §1
The lower lobe of the right lung was fixed with formalin solution. After paraffin embedding, […] sections were stained with haematoxylin and eosin and observed in a Dialux 22 Leitz (Wetziar, Germany) microscope. The score of lung fibrosis was assessed on sections stained with Masson Trichrome staining. For morphometric evaluations, all three lobes of right lung were inspected. […] Results are expressed as the percentage of vessels presenting indices of disease relative to the total number of vessels counted in the sections.

[3] = Tolerability during 10-day dosing in MCT rats (body weight, activity level); format: in vivo, Sprague-Dawley rats
Experimental: as §1

[4] = Solubility in solvents and aqueous liquids
[5] = tested on: MCT-induced pulmonary hypertension; details: reported in the literature; cited from earlier work
[6] = listed as 3-nitratomethyl-2,2,5,5-tetramethylpyrrolidinyloxy
[7] = Group 3: MCT + compound 1a, 1.5 mg/kg/day BID, IP
[8] = Group 4: MCT + compound 1a, 2 mg/kg/day BID, PO

Row | SMILES | Effect on elevation of pulmonary (arterial) hypertension, in words [1] | Effect on elevation of pulmonary (arterial) hypertension, in words [1, 6] | Protection by chronic oral (enteral) treatment compared with IP treatment ([2]; 2 mg/kg/day PO versus 1.5 mg/kg/day BID IP) | Alveolar damage [2, 7] | Angioedema score [2, 7] | Muscolaris thickening score [2, 7] | Perivascular infiltrate score [2, 7] | Fibrosis score [2, 7] | Alveolar damage [2, 8] | Angioedema score [2, 8] | Muscolaris thickening score [2, 8] | Perivascular infiltrate score [2, 8] | Fibrosis score [2, 8] | Effect on histological lung injury (alveolar damage, inflammatory cell infiltrate, vascular smooth muscle hypertrophy), in words [2] | Effect on histological lung injury (alveolar damage, inflammatory cell infiltrate, vascular smooth muscle hypertrophy), in words [2, 6] | Effect on body weight or activity level [3] | Tolerability [3] | Solubility in ethyl acetate and dimethylsulfoxide (DMSO) [4] | Solubility in non-toxic aqueous liquids suitable for human administration ([4]; water, saline, dextrose solution, polyethylene glycol) | Effect in the same rodent model with comparably delayed initiation of therapy [5]
1 | CC1(C)CC(CO[N+](=O)[O-])C(C)(C)N1[O] (centres unmarked) [compound 1a, 3-nitratomethyl-2,2,5,5-tetramethylpyrrolidinyloxy] | highly effective; also recorded: significantly reduced | significantly reduced | slightly more protective | 0.50 ± 0.35 | 10.00 ± 8.86 percentage of vessels | 0.00 ± 0.00 percentage of vessels | 5.95 ± 5.71 percentage of vessels | 0.80 ± 0.57 | 0.70 ± 0.45 | 7.00 ± 2.78 percentage of vessels | 0.00 ± 0.00 percentage of vessels | 6.06 ± 2.44 percentage of vessels | 1.00 ± 0.79 | significantly reduced; also recorded: remarkably reduced | significantly reduced | absence of any effect | well tolerated | soluble | insoluble | –
2 | COc1ccccc1Oc1c(NS(=O)(=O)c2ccc(C(C)(C)C)cc2)nc(-c2ncccn2)nc1OCCO [bosentan] | – | – | – | – | – | – | – | – | – | – | – | – | – | – | – | – | – | – | – | no effect
